Test results from article doi:10.1101/2024.08.19.608619, “Discovery of potent SARS-CoV-2 nsp3 macrodomain inhibitors uncovers lack of translation to cellular antiviral response” (bioRxiv, 2024).
“And” between values parts separate entries of the source, which are not always exact repeats. Equal values may be shown once. Read-outs that look alike come from different tables or passages of the source.

Assays:
[1] = In vitro mouse hepatocyte stability; type: in vitro ADME
Text: Supplement media-1.zip/Hepatocyte_Stability.csv, table | column: clint; t_half

A2A (h) = molecular target: T1, A2A (h) (Homo sapiens, UniProt P29274); test: In vitro CEREP profiling, A2A (h) (agonist radioligand); type: binding; conditions: test compound 10 uM
T1 construct: purchased Eurofins Cerep (SafetyScreen44), recognised from the panel format
T1 sequence (P29274 whole entry): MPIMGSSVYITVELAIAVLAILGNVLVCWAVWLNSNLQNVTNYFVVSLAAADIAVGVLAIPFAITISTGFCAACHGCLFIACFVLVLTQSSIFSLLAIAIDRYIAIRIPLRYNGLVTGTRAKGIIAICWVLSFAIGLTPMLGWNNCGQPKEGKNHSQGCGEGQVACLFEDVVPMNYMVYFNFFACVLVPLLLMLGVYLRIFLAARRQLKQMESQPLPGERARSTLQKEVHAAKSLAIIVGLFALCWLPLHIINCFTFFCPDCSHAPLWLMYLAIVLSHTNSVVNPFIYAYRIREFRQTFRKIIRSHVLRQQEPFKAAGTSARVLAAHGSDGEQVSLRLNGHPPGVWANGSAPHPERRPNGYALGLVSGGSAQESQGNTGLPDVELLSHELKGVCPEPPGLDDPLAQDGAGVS
Text: (§1) Supplement media-1.zip/Safety_Panel_Profile.csv, table | column: perc_inhibition

alpha2A (h) = molecular target: T2, alpha2A (h) (Homo sapiens, UniProt P08913); test: In vitro CEREP profiling, alpha2A (h) (antagonist radioligand); type: binding; conditions: test compound 10 uM
T2 construct: purchased Eurofins Cerep (SafetyScreen44), recognised from the panel format
T2 sequence (P08913 1-465): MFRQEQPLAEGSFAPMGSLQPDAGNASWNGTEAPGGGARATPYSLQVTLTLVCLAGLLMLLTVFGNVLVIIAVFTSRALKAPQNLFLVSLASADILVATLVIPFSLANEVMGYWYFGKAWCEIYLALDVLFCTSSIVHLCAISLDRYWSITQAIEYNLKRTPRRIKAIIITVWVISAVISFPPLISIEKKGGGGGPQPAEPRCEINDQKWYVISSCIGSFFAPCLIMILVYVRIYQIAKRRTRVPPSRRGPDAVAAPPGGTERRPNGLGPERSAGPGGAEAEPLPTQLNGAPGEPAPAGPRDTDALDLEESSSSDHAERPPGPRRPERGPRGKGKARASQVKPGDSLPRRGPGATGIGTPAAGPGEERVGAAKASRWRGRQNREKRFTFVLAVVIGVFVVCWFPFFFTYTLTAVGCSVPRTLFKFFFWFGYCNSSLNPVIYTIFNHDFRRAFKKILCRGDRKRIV
Text: as §1

MAO-A = molecular target: T3, MAO-A (Rattus norvegicus, UniProt P21396); test: In vitro CEREP profiling, MAO-A (antagonist radioligand); type: binding; conditions: test compound concentration 10 uM
T3 construct: purchased Eurofins Cerep (SafetyScreen44), recognised from the panel format
T3 sequence (P21396 1-526): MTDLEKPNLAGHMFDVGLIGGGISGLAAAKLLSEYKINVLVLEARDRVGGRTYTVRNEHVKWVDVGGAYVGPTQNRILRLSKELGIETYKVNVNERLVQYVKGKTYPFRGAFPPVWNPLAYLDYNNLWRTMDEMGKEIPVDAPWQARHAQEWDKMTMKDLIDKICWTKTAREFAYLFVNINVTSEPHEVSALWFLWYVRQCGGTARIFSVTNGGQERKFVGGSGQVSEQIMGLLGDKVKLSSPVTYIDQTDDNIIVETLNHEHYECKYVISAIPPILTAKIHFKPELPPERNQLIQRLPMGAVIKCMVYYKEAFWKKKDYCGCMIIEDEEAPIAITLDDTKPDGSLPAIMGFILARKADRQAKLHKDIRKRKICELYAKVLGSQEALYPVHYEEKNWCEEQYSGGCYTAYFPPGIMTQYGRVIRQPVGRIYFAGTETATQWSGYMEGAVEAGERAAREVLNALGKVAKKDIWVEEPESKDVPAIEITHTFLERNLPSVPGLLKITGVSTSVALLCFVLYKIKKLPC
Text: as §1

M3 (h) = molecular target: T4, M3 (h) (Homo sapiens, UniProt P20309); test: In vitro CEREP profiling, M3 (h) (antagonist radioligand); type: binding; conditions: test compound concentration 10 uM
T4 construct: purchased Eurofins Cerep (SafetyScreen44), recognised from the panel format
T4 sequence (P20309 whole entry): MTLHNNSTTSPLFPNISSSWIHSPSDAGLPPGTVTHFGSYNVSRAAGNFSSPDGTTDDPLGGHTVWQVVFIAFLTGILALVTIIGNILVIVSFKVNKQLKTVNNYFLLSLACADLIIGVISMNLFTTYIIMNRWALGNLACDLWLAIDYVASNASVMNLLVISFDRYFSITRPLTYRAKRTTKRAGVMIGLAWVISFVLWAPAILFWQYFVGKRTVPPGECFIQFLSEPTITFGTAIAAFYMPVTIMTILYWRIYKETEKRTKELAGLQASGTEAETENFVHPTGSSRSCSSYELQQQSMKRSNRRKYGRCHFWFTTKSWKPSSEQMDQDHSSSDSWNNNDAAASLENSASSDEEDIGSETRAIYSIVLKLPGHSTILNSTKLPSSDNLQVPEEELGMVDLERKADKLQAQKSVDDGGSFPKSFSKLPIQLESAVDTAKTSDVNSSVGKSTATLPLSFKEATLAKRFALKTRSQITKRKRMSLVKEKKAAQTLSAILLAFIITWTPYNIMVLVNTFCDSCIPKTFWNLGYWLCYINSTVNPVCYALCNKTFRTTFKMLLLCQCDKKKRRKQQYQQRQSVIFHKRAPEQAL
Text: as §1

acetylcholinesterase (h) = molecular target: T5, acetylcholinesterase (h) (Homo sapiens, UniProt P22303); test: In vitro CEREP profiling, acetylcholinesterase (h); type: biochemical; conditions: test compound concentration 10 uM; Enzyme and Cell-based assays
T5 construct: purchased Eurofins Cerep (SafetyScreen44), recognised from the panel format
T5 sequence (P22303 32-614): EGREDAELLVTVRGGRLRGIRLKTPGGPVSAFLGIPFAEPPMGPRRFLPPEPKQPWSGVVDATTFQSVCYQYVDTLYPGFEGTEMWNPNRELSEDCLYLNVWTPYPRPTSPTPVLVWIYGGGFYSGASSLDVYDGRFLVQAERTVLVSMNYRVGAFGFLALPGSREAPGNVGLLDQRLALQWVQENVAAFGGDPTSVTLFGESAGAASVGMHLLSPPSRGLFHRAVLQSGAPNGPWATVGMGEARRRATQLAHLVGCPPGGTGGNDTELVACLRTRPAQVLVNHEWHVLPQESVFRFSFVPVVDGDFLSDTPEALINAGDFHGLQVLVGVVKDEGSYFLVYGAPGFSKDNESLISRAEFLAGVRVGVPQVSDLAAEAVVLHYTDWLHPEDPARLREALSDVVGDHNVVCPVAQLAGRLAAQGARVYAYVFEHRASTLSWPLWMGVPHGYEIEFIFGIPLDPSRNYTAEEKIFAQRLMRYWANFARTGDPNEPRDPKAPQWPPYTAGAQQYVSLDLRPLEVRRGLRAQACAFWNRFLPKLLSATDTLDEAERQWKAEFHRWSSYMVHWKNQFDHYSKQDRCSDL
Text: as §1

CB1 (h) = molecular target: T6, CB1 (h) (Homo sapiens, UniProt P21554); test: In vitro CEREP profiling, CB1 (h) (agonist radioligand); type: binding; conditions: test compound 10 uM
T6 construct: purchased Eurofins Cerep (SafetyScreen44), recognised from the panel format
T6 sequence (P21554 whole entry): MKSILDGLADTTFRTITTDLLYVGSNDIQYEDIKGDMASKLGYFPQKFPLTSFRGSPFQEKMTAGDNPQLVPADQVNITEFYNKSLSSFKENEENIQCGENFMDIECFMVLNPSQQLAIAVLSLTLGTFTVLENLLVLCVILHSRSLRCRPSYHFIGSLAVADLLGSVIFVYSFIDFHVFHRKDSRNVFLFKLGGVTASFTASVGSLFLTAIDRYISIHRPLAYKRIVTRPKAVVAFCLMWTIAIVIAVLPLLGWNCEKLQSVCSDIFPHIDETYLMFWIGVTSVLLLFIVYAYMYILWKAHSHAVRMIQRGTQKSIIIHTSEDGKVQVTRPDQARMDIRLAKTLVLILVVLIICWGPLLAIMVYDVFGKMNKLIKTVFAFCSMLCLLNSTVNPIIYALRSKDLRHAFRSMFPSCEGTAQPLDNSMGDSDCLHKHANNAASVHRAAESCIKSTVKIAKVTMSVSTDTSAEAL
Text: as §1

[2] = In vitro rat SD liver microsomal stability; type: in vitro ADME
Text: Supplement media-1.zip/Hepatic_Microsomal_Stability.csv, table | column: clint; t_half

5-HT1A (h) = molecular target: T7, 5-HT1A (h) (Homo sapiens, UniProt P08908); test: In vitro CEREP profiling, 5-HT1A (h) (agonist radioligand); type: binding; conditions: test compound concentration 10 uM
T7 construct: purchased Eurofins Cerep (SafetyScreen44), recognised from the panel format
T7 sequence (P08908 1-422): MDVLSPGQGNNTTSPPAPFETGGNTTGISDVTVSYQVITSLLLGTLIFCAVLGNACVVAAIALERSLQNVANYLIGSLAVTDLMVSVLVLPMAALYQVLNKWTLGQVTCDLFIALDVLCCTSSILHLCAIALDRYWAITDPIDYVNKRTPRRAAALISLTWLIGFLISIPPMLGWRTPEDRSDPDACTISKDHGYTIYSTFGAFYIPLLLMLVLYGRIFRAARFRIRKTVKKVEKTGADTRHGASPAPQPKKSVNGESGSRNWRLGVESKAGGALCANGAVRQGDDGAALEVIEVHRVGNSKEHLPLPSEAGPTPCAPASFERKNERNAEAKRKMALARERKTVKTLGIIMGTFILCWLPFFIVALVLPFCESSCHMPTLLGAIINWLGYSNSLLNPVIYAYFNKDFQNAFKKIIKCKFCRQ
Text: as §1

ETA (h) = molecular target: T8, ETA (h) (Homo sapiens, UniProt P25101); test: In vitro CEREP profiling, ETA (h) (agonist radioligand); type: binding; conditions: test compound 10 uM
T8 construct: purchased Eurofins Cerep (SafetyScreen44), recognised from the panel format
T8 sequence (P25101 21-427): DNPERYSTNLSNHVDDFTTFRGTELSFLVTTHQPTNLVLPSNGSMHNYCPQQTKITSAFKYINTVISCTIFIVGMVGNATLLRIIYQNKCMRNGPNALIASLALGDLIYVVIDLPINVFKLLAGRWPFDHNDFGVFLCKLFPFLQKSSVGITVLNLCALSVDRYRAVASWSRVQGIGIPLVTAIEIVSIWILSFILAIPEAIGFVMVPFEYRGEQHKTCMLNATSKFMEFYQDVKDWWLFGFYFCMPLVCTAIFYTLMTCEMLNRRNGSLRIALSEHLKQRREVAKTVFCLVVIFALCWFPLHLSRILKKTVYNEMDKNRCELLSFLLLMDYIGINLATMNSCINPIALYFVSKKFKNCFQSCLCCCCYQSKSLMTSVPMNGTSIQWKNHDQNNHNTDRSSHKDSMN
Text: as §1

MERS-CoV = test: microbe, parasite or virus in culture; type: cell-based; conditions: Vero E6/TMPRSS2 MERS-CoV antiviral effect with P-gp inhibitor; for perc_max_measured: maximum measured response of dose series; for perc_min_measured: minimum measured response of dose series; for EC50: read-out: ec50; for EC90: read-out: ec90
NaV1.5 = NaV1.5 (Homo sapiens, UniProt Q14524); test: In vitro NaV1.5 cardiotoxicity; conditions: top test concentration 30 uM
Sequence of NaV1.5 (Q14524 whole entry): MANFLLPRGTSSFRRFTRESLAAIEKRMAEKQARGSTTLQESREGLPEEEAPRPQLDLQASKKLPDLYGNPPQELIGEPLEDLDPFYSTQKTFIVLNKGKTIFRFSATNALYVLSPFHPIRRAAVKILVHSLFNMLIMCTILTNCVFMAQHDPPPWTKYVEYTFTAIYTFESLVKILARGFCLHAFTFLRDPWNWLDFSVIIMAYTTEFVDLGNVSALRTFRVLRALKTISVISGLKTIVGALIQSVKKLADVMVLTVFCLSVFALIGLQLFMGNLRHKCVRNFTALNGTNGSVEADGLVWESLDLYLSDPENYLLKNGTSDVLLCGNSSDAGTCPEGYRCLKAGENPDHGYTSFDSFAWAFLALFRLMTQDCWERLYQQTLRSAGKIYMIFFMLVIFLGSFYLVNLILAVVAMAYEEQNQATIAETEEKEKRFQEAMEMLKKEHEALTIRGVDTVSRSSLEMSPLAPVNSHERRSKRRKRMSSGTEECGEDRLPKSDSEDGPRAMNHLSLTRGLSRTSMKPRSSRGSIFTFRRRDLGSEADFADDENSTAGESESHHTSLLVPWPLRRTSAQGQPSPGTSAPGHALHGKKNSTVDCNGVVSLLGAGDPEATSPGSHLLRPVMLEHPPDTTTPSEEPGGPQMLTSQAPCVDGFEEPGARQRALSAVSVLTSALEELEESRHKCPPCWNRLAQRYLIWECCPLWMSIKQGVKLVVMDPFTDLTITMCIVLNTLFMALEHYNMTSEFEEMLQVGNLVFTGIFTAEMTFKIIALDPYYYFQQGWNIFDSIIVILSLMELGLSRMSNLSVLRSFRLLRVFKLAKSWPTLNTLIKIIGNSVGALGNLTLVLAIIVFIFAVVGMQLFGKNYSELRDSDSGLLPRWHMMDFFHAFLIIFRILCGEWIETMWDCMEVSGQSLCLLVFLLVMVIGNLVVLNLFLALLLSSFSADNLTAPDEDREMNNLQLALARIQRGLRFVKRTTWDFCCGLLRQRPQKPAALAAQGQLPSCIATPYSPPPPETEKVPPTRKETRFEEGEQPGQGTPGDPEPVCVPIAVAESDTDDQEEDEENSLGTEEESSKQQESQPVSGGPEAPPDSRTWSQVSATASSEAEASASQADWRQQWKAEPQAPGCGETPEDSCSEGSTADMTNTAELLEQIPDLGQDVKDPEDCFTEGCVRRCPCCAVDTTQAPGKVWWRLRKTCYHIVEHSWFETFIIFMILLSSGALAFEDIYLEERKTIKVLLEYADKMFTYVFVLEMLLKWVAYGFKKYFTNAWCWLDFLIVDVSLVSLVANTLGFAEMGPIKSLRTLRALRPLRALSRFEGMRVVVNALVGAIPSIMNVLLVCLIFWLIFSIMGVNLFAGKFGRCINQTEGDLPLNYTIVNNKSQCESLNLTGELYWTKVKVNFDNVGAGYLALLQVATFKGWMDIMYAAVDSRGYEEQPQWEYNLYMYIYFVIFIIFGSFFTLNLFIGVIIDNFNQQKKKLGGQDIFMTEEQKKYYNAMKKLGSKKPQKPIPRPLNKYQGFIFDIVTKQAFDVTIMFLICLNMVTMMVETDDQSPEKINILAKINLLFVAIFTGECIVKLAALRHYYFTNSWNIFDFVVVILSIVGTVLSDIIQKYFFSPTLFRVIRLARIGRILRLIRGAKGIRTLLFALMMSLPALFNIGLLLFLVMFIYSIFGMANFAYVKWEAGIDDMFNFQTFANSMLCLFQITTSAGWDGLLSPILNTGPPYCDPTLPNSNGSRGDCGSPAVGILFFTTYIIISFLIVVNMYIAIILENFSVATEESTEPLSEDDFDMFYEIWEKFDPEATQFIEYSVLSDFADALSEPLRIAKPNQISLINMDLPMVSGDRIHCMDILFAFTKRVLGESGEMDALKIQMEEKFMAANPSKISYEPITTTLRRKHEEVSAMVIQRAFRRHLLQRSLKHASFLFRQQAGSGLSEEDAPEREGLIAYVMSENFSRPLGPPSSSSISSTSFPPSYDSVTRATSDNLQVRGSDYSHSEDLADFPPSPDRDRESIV
Text: Supplement media-1.zip/Cardiotoxicity.csv, table | column: ic50_rest_state; ic50_use_dep_block; perc_inhibition_rest_state; perc_inhibition_use_dep_block

in vitro = conditions: human, hela-ace2 cells, 50.0
[3] = NaV1.5, rest state, read-out: ic50_rest_state
[4] = NaV1.5, use dependent block, read-out: ic50_use_dep_block

CNCc1cc(-c2cc3c(N[C@@H](c4ccc5c(c4)S(=O)(=O)CCC5)C(C)C)ncnc3[nH]2)co1 [ASAP-0011176]
clint [1]: 74.7 uL/min/1E6 cells
t_half [1]: 9.27 min
perc_inhibition (% inhibition of the binding of a ligand specific for each target) (A2A (h)): 21%
perc_inhibition (% inhibition of the binding of a ligand specific for each target) (alpha2A (h)): 15%
perc_inhibition (% inhibition of the binding of a ligand specific for each target) (MAO-A): 11%
perc_inhibition (% inhibition of the binding of a ligand specific for each target) (M3 (h)): 5%
perc_inhibition: % inhibition of control enzyme activity, acetylcholinesterase (h) (acetylcholinesterase (h)): 10%
perc_inhibition (% inhibition of the binding of a ligand specific for each target) (CB1 (h)): 3%
clint [2]: 21.4 µL/min/mg
t_half [2]: 32.4 min
perc_inhibition (% inhibition of the binding of a ligand specific for each target) (5-HT1A (h)): 6%
perc_inhibition (% inhibition of the binding of a ligand specific for each target) (ETA (h)): -1%
perc_max_measured (MERS-CoV): 108.298% and 134.469%
perc_min_measured (MERS-CoV): 91.617% and 86.125%
EC50 (MERS-CoV): > 5 µM
EC90 (MERS-CoV): > 5 µM
perc_inhibition_rest_state (NaV1.5; NaV1.5, rest state): 10.0%
IC50 (NaV1.5; [3]): > 30 µM
perc_inhibition_use_dep_block (NaV1.5; NaV1.5, use dependent block): 16.0%
IC50 (NaV1.5; [4]): > 30 µM
CC50 at 24 h (in vitro): > 20 µM

C[C@H](C(=O)O)[C@@H](NC(=O)c1ncnc2[nH]ccc12)c1ccc(Br)cc1 [ASAP-0014722]
clint [1]: 4.35 uL/min/1E6 cells
t_half [1]: 159.0 min
perc_inhibition (% inhibition of the binding of a ligand specific for each target) (A2A (h)): -14%
perc_inhibition (% inhibition of the binding of a ligand specific for each target) (alpha2A (h)): 3%
perc_inhibition (% inhibition of the binding of a ligand specific for each target) (MAO-A): -1%
perc_inhibition (% inhibition of the binding of a ligand specific for each target) (M3 (h)): -9%
perc_inhibition: % inhibition of control enzyme activity, acetylcholinesterase (h) (acetylcholinesterase (h)): 12%
perc_inhibition (% inhibition of the binding of a ligand specific for each target) (CB1 (h)): -11%
clint [2]: < 5.0 µL/min/mg
t_half [2]: > 139.0 min
perc_inhibition (% inhibition of the binding of a ligand specific for each target) (5-HT1A (h)): 2%
perc_inhibition (% inhibition of the binding of a ligand specific for each target) (ETA (h)): -2%
perc_max_measured (MERS-CoV): 106.305% and 132.117%
perc_min_measured (MERS-CoV): 63.318% and 92.538%
EC50 (MERS-CoV): > 5 µM
EC90 (MERS-CoV): > 5 µM
perc_inhibition_rest_state (NaV1.5; NaV1.5, rest state): 18.0%
IC50 (NaV1.5; [3]): > 30 µM
perc_inhibition_use_dep_block (NaV1.5; NaV1.5, use dependent block): 16.0%
IC50 (NaV1.5; [4]): > 30 µM
CC50 at 24 h (in vitro): > 20 µM

COc1ccc([C@H](Cc2nnn[nH]2)NC(=O)c2ncnc3[nH]ccc23)cc1 [ASAP-0015381]
clint [1]: 4.6 uL/min/1E6 cells
t_half [1]: 151.0 min
perc_inhibition (% inhibition of the binding of a ligand specific for each target) (A2A (h)): -13%
perc_inhibition (% inhibition of the binding of a ligand specific for each target) (alpha2A (h)): -1%
perc_inhibition (% inhibition of the binding of a ligand specific for each target) (MAO-A): 0%
perc_inhibition (% inhibition of the binding of a ligand specific for each target) (M3 (h)): -15%
perc_inhibition: % inhibition of control enzyme activity, acetylcholinesterase (h) (acetylcholinesterase (h)): 11%
perc_inhibition (% inhibition of the binding of a ligand specific for each target) (CB1 (h)): -8%
clint [2]: < 5.0 µL/min/mg
t_half [2]: > 139.0 min
perc_inhibition (% inhibition of the binding of a ligand specific for each target) (5-HT1A (h)): 5%
perc_inhibition (% inhibition of the binding of a ligand specific for each target) (ETA (h)): 2%
perc_max_measured (MERS-CoV): 110.958% and 111.344%
perc_min_measured (MERS-CoV): 85.891% and 86.764%
EC50 (MERS-CoV): > 5 µM
EC90 (MERS-CoV): > 5 µM
perc_inhibition_rest_state (NaV1.5; NaV1.5, rest state): 9.0%
IC50 (NaV1.5; [3]): > 30 µM
perc_inhibition_use_dep_block (NaV1.5; NaV1.5, use dependent block): 8.0%
IC50 (NaV1.5; [4]): > 30 µM
CC50 at 24 h (in vitro): > 20 µM
